{"source": "PubChem BioAssay AID564", "about": "(University of Pittsburgh Molecular Library Screening Center, 2006)", "target": "Dual specificity protein phosphatase 6 (Rattus norvegicus) (UniProt Q64346)", "sequence (Q64346 whole entry, looked up)": "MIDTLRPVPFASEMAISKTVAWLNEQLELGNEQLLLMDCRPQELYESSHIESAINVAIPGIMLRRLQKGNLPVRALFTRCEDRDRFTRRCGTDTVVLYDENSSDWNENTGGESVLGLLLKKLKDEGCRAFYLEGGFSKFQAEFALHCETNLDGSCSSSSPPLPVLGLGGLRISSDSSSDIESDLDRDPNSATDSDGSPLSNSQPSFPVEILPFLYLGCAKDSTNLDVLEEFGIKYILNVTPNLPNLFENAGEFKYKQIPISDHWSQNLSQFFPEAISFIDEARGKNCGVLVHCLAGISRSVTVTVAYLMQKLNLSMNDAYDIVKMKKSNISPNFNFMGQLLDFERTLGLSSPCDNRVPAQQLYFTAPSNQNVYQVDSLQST", "test": "catalase influence on rat DUSP6 inhibition – biochemical, catalase added, probe assessment, dose response (AID 564)", "details": "recombinant MKP-3 phosphatase, fluorescence, with catalase", "note": "Active and inactive are the calls of the source. No rule for the calls is given here.", "data": [{"compound": "O=C1C(C2=C(O)c3ccccc3C2=O)=Nc2ccccc21", "values": [{"measurement": "IC50", "result": "> 50 µM (inactive)"}]}]}
